According to publication PMC4926365, “Expression and Characterization of a Novel Glycerophosphodiester Phosphodiesterase from Pyrococcus furiosus DSM 3638 That Possesses Lysophospholipase D Activity” (International Journal of Molecular Sciences, 2016):

Biological target: T1, pfGDPD (Pyrococcus furiosus, UniProt Q8TZI9)
T1 construct: gene PF2003; full length 253 aa, no signal peptide; synthetic gene in pET28a, N- and C-terminal His6 tags kept; E. coli SHuffle T7; Ni-NTA; 34,059 Da
T1 sequence (Q8TZI9 1-253): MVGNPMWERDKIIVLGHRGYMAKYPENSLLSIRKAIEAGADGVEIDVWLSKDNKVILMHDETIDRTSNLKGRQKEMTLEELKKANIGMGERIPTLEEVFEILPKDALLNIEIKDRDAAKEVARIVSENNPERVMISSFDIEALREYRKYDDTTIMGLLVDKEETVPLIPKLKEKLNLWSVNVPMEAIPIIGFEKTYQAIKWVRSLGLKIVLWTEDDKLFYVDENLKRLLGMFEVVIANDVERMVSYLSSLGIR
Test: colorimetric p-nitrophenol release
Assay type: biochemical
Settings: Mn2+ (best at 5 mM), 50 mM Tris-HCl pH 8.5, 55 °C

Compound: O=[N+]([O-])c1ccc(OP(=O)(O)Oc2ccc([N+](=O)[O-])cc2)cc1 [bis(p-nitrophenyl) phosphate]
- colorimetric p-nitrophenol release: The optimal temperature of recombinant pfGDPD was determined using BpNPP as substrate
